Laboratory results from patent publication US20100298141A1, “SUBSTITUTED PYRIDINE N-OXIDE HERBICIDES” (E. I. DU PONT DE NEMOURS AND COMPANY, priority 2007, published 2010).

What was measured:
barnyardgrass = assay: Test A pre-/postemergence greenhouse test; assay type: in vivo, Echinochloa crus-galli; settings: for Barnyardgrass plant response rating: 0 to 100 scale
Outline: (§1)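 Seeds sown in a loam soil–sand blend got a preemergence directed soil spray of compound in a non-phytotoxic solvent mixture containing surfactant. Postemergence sprays of the same formulation went at the same time onto plants 2–10 cm tall at the one- to two-leaf stage. Injury was scored visually against untreated controls after about ten days in the greenhouse.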

crabgrass [1] = assay: Test A pre-/postemergence greenhouse test; assay type: in vivo, Digitaria sanguinalis; settings: for Crabgrass, Large plant response rating: 0 to 100 scale
Outline: as §1

wheat = assay: Test A pre-/postemergence greenhouse test; assay type: in vivo, Triticum aestivum; settings: for Wheat plant response rating: 0 to 100 scale
Outline: as §1

corn [2] = assay: Test A pre-/postemergence greenhouse test; assay type: in vivo, Zea mays; settings: for Corn plant response rating: 0 to 100 scale
Outline: as §1

Italian ryegrass = assay: Test C pre-/postemergence test; assay type: in vivo, Lolium multiflorum; settings: for Plant response rating, Ryegrass, Italian: scale 0 to 100, 0 no effect, 100 complete control
Outline: (§2)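 Compounds in a non-phytotoxic solvent with surfactant applied preemergence to seeded pots and, at the same time, postemergence to plants 2–18 cm tall (1- to 4-leaf stage). Paddy tests: pots flooded to 3 cm, compound applied into the water, depth held throughout.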

Surinam grass = assay: Test C pre-/postemergence test; assay type: in vivo, Brachiaria decumbens; settings: for Surinam Grass plant response rating: preemergence, scale 0 (no effect) to 100 (complete control); for Plant response rating, Surinam Grass: scale 0 to 100, 0 no effect, 100 complete control
Outline: as §2

corn [3] = assay: Test C pre-/postemergence test; assay type: in vivo, Zea mays; settings: for Plant response rating, Corn: scale 0 to 100, 0 no effect, 100 complete control
Outline: as §2

crabgrass [4] = assay: Test C pre-/postemergence test; assay type: in vivo, Digitaria sanguinalis; settings: for Plant response rating, Crabgrass, Large: scale 0 to 100, 0 no effect, 100 complete control
Outline: as §2

giant foxtail = assay: Test C pre-/postemergence test; assay type: in vivo, Setaria faberii; settings: for Plant response rating, Foxtail, Giant: scale 0 to 100, 0 no effect, 100 complete control
Outline: as §2

Goosegrass = assay: Test C pre-/postemergence test; assay type: in vivo, Eleusin indica; settings: for Plant response rating, Goosegrass: scale 0 to 100, 0 no effect, 100 complete control
Outline: as §2

johnsongrass = assay: Test C pre-/postemergence test; assay type: in vivo, Sorghum halepense; settings: for Plant response rating, Johnsongrass: scale 0 to 100, 0 no effect, 100 complete control
Outline: as §2

morningglory = assay: Test C pre-/postemergence test; assay type: in vivo, Ipomoea coccinea; settings: for Plant response rating, Morningglory: scale 0 to 100, 0 no effect, 100 complete control
Outline: as §2

eastern black nightshade = assay: Test C pre-/postemergence test; assay type: in vivo, Solanum ptycanthum
Outline: as §2

pigweed = assay: Test C pre-/postemergence test; assay type: in vivo, Amaranthus retroflexus; settings: for Plant response rating, Pigweed: scale 0 to 100, 0 no effect, 100 complete control
Outline: as §2

[5] = tested on: common (oilseed) sunflower; assay: Test C pre-/postemergence test; assay type: in vivo, Helianthus annuus; settings: for Sunflower plant response rating: preemergence, scale 0 (no effect) to 100 (complete control)
Outline: as §2

velvetleaf = assay: Test C pre-/postemergence test; assay type: in vivo, Abutilon theophrasti; settings: Postemergence; for Plant response rating, Velvetleaf: scale 0 to 100, 0 no effect, 100 complete control
Outline: as §2

[6] = Postemergence, 125 g ai/ha, 0 is no effect, 100 is complete control
[7] = Postemergence, 500 g ai/ha, 0 is no effect, 100 is complete control
[8] = Preemergence, 125 g ai/ha, 0 no effect, 100 complete control
[9] = Preemergence, 500 g ai/ha, 0 to 100 scale where 0 is no effect and 100 is complete control
[10] = 31 g ai/ha, Preemergence, scale 0 to 100
[11] = 62 g ai/ha, preemergence, scale 0 (no effect) to 100 (complete control)
[12] = preemergence, 125 g ai/ha, scale 0 (no effect) to 100 (complete control)

CC(c1c(C(F)(F)F)nn(C)c1OC(F)F)S(=O)(=O)c1cccc[n+]1[O-] (centres unmarked) [Compound 5]
Barnyardgrass plant response rating (barnyardgrass; [6]): 80 | Barnyardgrass plant response rating (barnyardgrass; [7]): 80 | Barnyardgrass plant response rating (barnyardgrass; [8]): 70 | Plant response rating, Barnyardgrass (barnyardgrass; [9]): 90 | Crabgrass, Large plant response rating (crabgrass [1]; [6]): 80 | Crabgrass, Large plant response rating (crabgrass [1]; [7]): 90 | Crabgrass, Large plant response rating (crabgrass [1]; [8]): 80 | Plant response rating, Crabgrass, Large (crabgrass [1]; [9]): 100 | Wheat plant response rating (wheat; [6]): 60 | Wheat plant response rating (wheat; [7]): 70 | Wheat plant response rating (wheat; [8]): 70 | Plant response rating, Wheat (wheat; [9]): 90 | Corn plant response rating (corn [2]; [6]): 30 | Corn plant response rating (corn [2]; [7]): 70 | Corn plant response rating (corn [2]; [8]): 20 | Plant response rating, Corn (corn [2]; [9]): 80 | Ryegrass, Italian plant response rating (Italian ryegrass; [10]): 80 | Ryegrass, Italian plant response rating (Italian ryegrass; [11]): 100 | Plant response rating (0 to 100), Ryegrass, Italian (Italian ryegrass; Postemergence, 31 g ai/ha): 0 | Plant response rating (0 to 100), Ryegrass, Italian (Italian ryegrass; Postemergence, 62 g ai/ha): 0 | Plant response rating, Ryegrass, Italian (Italian ryegrass; Postemergence, 125 g ai/ha): 40 | Plant response rating, Ryegrass, Italian (Italian ryegrass; Postemergence, 250 g ai/ha): 50 | Plant response rating (0 to 100), Ryegrass, Italian (Italian ryegrass; Preemergence, 250 g ai/ha): 100 | Ryegrass, Italian plant response rating (Italian ryegrass; [12]): 100 | Surinam Grass plant response rating (Surinam grass; 62 g ai/ha): 70 | Plant response rating (0 to 100), Surinam Grass (Surinam grass; Postemergence, 31 g ai/ha): 30 | Plant response rating (0 to 100), Surinam Grass (Surinam grass; Postemergence, 62 g ai/ha): 55 | Plant response rating, Surinam Grass (Surinam grass; Postemergence, 125 g ai/ha): 60 | Plant response rating, Surinam Grass (Surinam grass; Postemergence, 250 g ai/ha): 100 | Plant response rating (0 to 100), Surinam Grass (Surinam grass; Preemergence, 250 g ai/ha): 95 | Surinam Grass plant response rating (Surinam grass; 125 g ai/ha): 70 | Corn plant response rating (corn [3]; [10]): 0 | Corn plant response rating (corn [3]; [11]): 40 | Plant response rating (0 to 100), Corn (corn [3]; Postemergence, 31 g ai/ha): 0 | Plant response rating, Corn (corn [3]; Postemergence, 62 g ai/ha): 0 | Plant response rating, Corn (corn [3]; Postemergence, 125 g ai/ha): 0 | Plant response rating, Corn (corn [3]; Postemergence, 250 g ai/ha): 0 | Plant response rating (0 to 100), Corn (corn [3]; Preemergence, 250 g ai/ha): 95 | Corn plant response rating (corn [3]; [12]): 55 | Crabgrass, Large plant response rating (crabgrass [4]; [10]): 98 | Crabgrass, Large plant response rating (crabgrass [4]; [11]): 100 | Plant response rating (0 to 100), Crabgrass, Large (crabgrass [4]; Postemergence, 31 g ai/ha): 5 | Plant response rating, Crabgrass, Large (crabgrass [4]; Postemergence, 62 g ai/ha): 20 | Plant response rating, Crabgrass, Large (crabgrass [4]; Postemergence, 125 g ai/ha): 60 | Plant response rating, Crabgrass, Large (crabgrass [4]; Postemergence, 250 g ai/ha): 60 | Plant response rating (0 to 100), Crabgrass, Large (crabgrass [4]; Preemergence, 250 g ai/ha): 100 | Crabgrass, Large plant response rating (crabgrass [4]; [12]): 100 | Foxtail, Giant plant response rating (giant foxtail; [10]): 95 | Foxtail, Giant plant response rating (giant foxtail; [11]): 95 | Plant response rating (0 to 100), Foxtail, Giant (giant foxtail; Postemergence, 31 g ai/ha): 0 | Plant response rating, Foxtail, Giant (giant foxtail; Postemergence, 62 g ai/ha): 5 | Plant response rating, Foxtail, Giant (giant foxtail; Postemergence, 125 g ai/ha): 40 | Plant response rating, Foxtail, Giant (giant foxtail; Postemergence, 250 g ai/ha): 70 | Plant response rating (0 to 100), Foxtail, Giant (giant foxtail; Preemergence, 250 g ai/ha): 100 | Foxtail, Giant plant response rating (giant foxtail; [12]): 98 | Goosegrass plant response rating (Goosegrass; [10]): 100 | Goosegrass plant response rating (Goosegrass; [11]): 100 | Plant response rating (0 to 100), Goosegrass (Goosegrass; Postemergence, 31 g ai/ha): 0 | Plant response rating, Goosegrass (Goosegrass; Postemergence, 62 g ai/ha): 55 | Plant response rating, Goosegrass (Goosegrass; Postemergence, 125 g ai/ha): 60 | Plant response rating, Goosegrass (Goosegrass; Postemergence, 250 g ai/ha): 70 | Plant response rating (0 to 100), Goosegrass (Goosegrass; Preemergence, 250 g ai/ha): 100 | Goosegrass plant response rating (Goosegrass; [12]): 100 | Johnsongrass plant response rating (johnsongrass; [10]): 100 | Johnsongrass plant response rating (johnsongrass; [11]): 100 | Plant response rating (0 to 100), Johnsongrass (johnsongrass; Postemergence, 31 g ai/ha): 0 | Plant response rating, Johnsongrass (johnsongrass; Postemergence, 62 g ai/ha): 0 | Plant response rating, Johnsongrass (johnsongrass; Postemergence, 125 g ai/ha): 0 | Plant response rating, Johnsongrass (johnsongrass; Postemergence, 250 g ai/ha): 10 | Plant response rating (0 to 100), Johnsongrass (johnsongrass; Preemergence, 250 g ai/ha): 100 | Johnsongrass plant response rating (johnsongrass; [12]): 100 | Morningglory plant response rating (morningglory; [10]): 85 | Morningglory plant response rating (morningglory; [11]): 100 | Plant response rating (0 to 100), Morningglory (morningglory; Postemergence, 31 g ai/ha): 5 | Plant response rating, Morningglory (morningglory; Postemergence, 62 g ai/ha): 5 | Plant response rating, Morningglory (morningglory; Postemergence, 125 g ai/ha): 10 | Plant response rating, Morningglory (morningglory; Postemergence, 250 g ai/ha): 10 | Plant response rating (0 to 100), Morningglory (morningglory; Preemergence, 250 g ai/ha): 100 | Morningglory plant response rating (morningglory; [12]): 100 | Nightshade plant response rating (eastern black nightshade; [10]): 100 | Nightshade plant response rating (eastern black nightshade; [11]): 100 | Plant response rating (0 to 100), Nightshade (eastern black nightshade; Preemergence, 250 g ai/ha): 100 | Nightshade plant response rating (eastern black nightshade; [12]): 100 | Pigweed plant response rating (pigweed; [10]): 100 | Pigweed plant response rating (pigweed; [11]): 100 | Plant response rating (0 to 100), Pigweed (pigweed; Postemergence, 31 g ai/ha): 0 | Plant response rating (0 to 100), Pigweed (pigweed; Postemergence, 62 g ai/ha): 0 | Plant response rating, Pigweed (pigweed; Postemergence, 125 g ai/ha): 0 | Plant response rating, Pigweed (pigweed; Postemergence, 250 g ai/ha): 0 | Plant response rating (0 to 100), Pigweed (pigweed; Preemergence, 250 g ai/ha): 100 | Pigweed plant response rating (pigweed; [12]): 100 | Sunflower plant response rating ([5]; 62 g ai/ha): 55 | Plant response rating (0 to 100), Sunflower ([5]; Preemergence, 250 g ai/ha): 85 | Sunflower plant response rating ([5]; 125 g ai/ha): 70 | Plant response rating (0 to 100), Velvetleaf (velvetleaf; 31 g ai/ha): 0 | Plant response rating (0 to 100), Velvetleaf (velvetleaf; 62 g ai/ha): 0 | Plant response rating, Velvetleaf (velvetleaf; 125 g ai/ha): 5 | Plant response rating, Velvetleaf (velvetleaf; 250 g ai/ha): 50
